Measured values as given in article PMC8886331, “Lewis fucose is a key moiety for the recognition of histo‐blood group antigens by GI.9 norovirus, as revealed by structural analysis” (FEBS Open Bio, 2022).

Tests used:
[1] = target: T1, GI.9 Vancouver P domain (P dimer) of VP1 (Norovirus Hu/GI/Vancouver730/2004/CAN, UniProt F2XMU3); assay: X-ray crystal structure (soak), […] A; format: binding; conditions: crystal in 0.1 M bicine pH 9.0, 1.5-1.7 M MgCl2; soaked with 100 mM ligand overnight at 25 °C; HBGA site at P dimer interface
T1 construct: P (protruding) domain, residues 229-540 of VP1; N11-SUMO fusion from E. coli cell-free system or E. coli KRX, tag cleaved with SUMO protease; homodimer, site formed by both protomers (P-loop from the other protomer)

[2] = target: T1, GI.9 Vancouver P domain (P dimer) of VP1; assay: X-ray crystal structure (soak), […] A; format: binding; conditions: crystal in 0.1 M bicine pH 9.0, 1.5-1.7 M MgCl2; soaked with 100 mM ligand overnight at 25 °C; HBGA site at P dimer interface; remark: listed apart in the source
[3] = target: P domain of the VP1 capsid protein of the GI.9 norovirus Vancouver 730 strain (norovirus GI.9, Vancouver 730 strain); assay: SEC; size-exclusion chromatogram of the synthesized P domain proteins; data not shown

With `CC(=O)N[C@H]1C(O)O[C@H](CO)[C@@H](O[C@@H]2O[C@H](CO)[C@H](O)[C@H](O)[C@H]2O)[C@@H]1O[C@@H]1O[C@@H](C)[C@@H](O)[C@@H](O)[C@@H]1O` (stereo partly drawn) [Lewis x trisaccharide] the “X-ray crystal structure (soak), 2.26 A” value [1] was “P domains complexed with each of Lewis b tetrasaccharide and Lewis x trisaccharide”.

For `CC(=O)N[C@H]1C(O)O[C@H](CO)[C@@H](O[C@@H]2O[C@@H](C)[C@@H](O)[C@@H](O)[C@@H]2O)[C@@H]1O[C@@H]1O[C@H](CO)[C@H](O)[C@H](O)[C@H]1O[C@@H]1O[C@@H](C)[C@@H](O)[C@@H](O)[C@@H]1O` (stereo partly drawn) [Lewis b tetrasaccharide], the “X-ray crystal structure (soak), 2.40 A” value [2] was “crystal structures of the P domains complexed with each of Lewis b tetrasaccharide and Lewis x”.

“P domain of the VP1 capsid protein of the GI.9 norovirus Vancouver 730 strain (domain or fragment)” was tested, and the stoichiometry N [3] was 2.
